Experimental data from patent US20230285601A1, “NON DEGRADABLE RADIO-OPAQUE EMBOLISATION MICROSPHERE” (GUERBET, priority 2019, published 2023).

What was measured:
[1] = Release in vitro of anticancer drugs from the radiopaque microspheres; assay type: physicochemical; details: for Time for 50% release / Time for complete release / % elution at 1 h: microspheres with methacrylic acid, 37° C., 150 rpm; for % elution at 1 h: pH 7.4 buffer
Protocol: To study the release of doxorubicin from the microspheres, the sediments are washed in 10 mL of water, before adding 50 mL of buffer 50 mM Tris-HCl, 0.9% NaCl, pH 7.4. Incubation takes place at 37° C. with stirring. The release of doxorubicin is measured at different times at 490 nm.
To study the release of irinotecan, the microspheres are washed in 10 mL of water, and then 50 mL of PBS (10 mM Na2HPO4, 1.8 mM KH2PO4, 138 mM NaCl, 2.7 mM KCl, pH 7.4) equilibrated at 37° C. is added. The release of the drug over time is measured by reading the absorbance at 370 nm.
To study the release of sunitinib, the microspheres are washed in 10 mL of water, and then 50 mL of PBS equilibrated at 37° C. is added. The release of the drug over time is measured by reading the absorbance at 405 nm.
To study the release of vandetanib, the microspheres are washed in 10 mL of water, and then 50 mL of PBS equilibrated at 37° C. is added. The release of the drug over time is measured by reading the absorbance at 254 nm.

[2] = Loading of anticancer drugs on the radiopaque microspheres; assay type: physicochemical
Protocol: The tests of loading and controlled release of anticancer drugs were performed on radiopaque microspheres of 100-300 µm sterilized by autoclaving and comprising or not comprising an ionized or ionizable monomer such as methacrylic acid.
The microspheres with methacrylic acid are microspheres from batch 13, the composition of which is given in example 3. The microspheres without methacrylic acid have the same composition as the microspheres from batches L1 and L1Bis described in example 5.
Loading with doxorubicin: the target for loading is 37.5 mg of doxorubicin per ml of microspheres. For this, 3.8 mL of doxorubicin-HCl (Adriblastine®, Pfizer) in solution in water at 2.5 mg/mL is added to 250 µL of wet sediment of microspheres. After mixing by inversion, the suspension is made up to 6 mM with sodium bicarbonate (Lavoisier). Loading is carried out at room temperature and with stirring for one hour. Measurement of the residual amount of doxorubicin (absorbance at 490 nm) present in the supernatants serves for determining the amount of drug loaded on the microspheres.
Loading with irinotecan: the loading target is 50 mg of irinotecan per mL of microspheres. […] After 30 minutes, measurement of the residual amount of irinotecan (absorbance at 370 nm) in the supernatant serves for determining the amount loaded on the microspheres.
Loading with sunitinib: The sediments of the radiopaque microspheres are incubated for 1 h at room temperature in 10 mL of sunitinib in the form of malate (LC Laboratories) at 1 mg/mL in water. […] After stirring for 1 h on a wheel, measurement of the residual amount of sunitinib (absorbance at 405 nm) in the supernatant serves for determining the amount loaded on the microspheres.
Loading with vandetanib: The sediments of the radiopaque microspheres are incubated for 2 h at room temperature in 10 mL of a water/DMSO (1/1) mixture containing 5 mg of vandetanib (LC Laboratories). The residual amount of vandetanib in the supernatants is measured at 254 nm in order to calculate the amount loaded on the microspheres. […]

[3] = 100-300 µm radiopaque microspheres with methacrylic acid (batch 13)

Compound | Time for 50% release [1] [h] | Time for complete release [1] | % elution at 1 h [1] [%] | Loading (mg of drug / mL of wet sediment) [2, 3] | Release (elution in PBS), in words ([1]; compared with irinotecan) | Loading (mg of drug / mL of wet sediment) ([2]; 100-300 µm radiopaque microspheres without methacrylic acid)
CCc1c2c(nc3ccc(OC(=O)N4CCC(N5CCCCC5)CC4)cc13)-c1cc3c(c(=O)n1C2)COC(=O)[C@]3(O)CC [Irinotecan, irinotecan] | 1 | 1 days | 50 | 46 mg of drug / mL of wet sediment | – | –
COc1cccc2c1C(=O)c1c(O)c3c(c(O)c1C2=O)C[C@@](O)(C(=O)CO)C[C@@H]3O[C@H]1C[C@H](N)[C@H](O)[C@H](C)O1 [Doxorubicin, doxorubicin] | 24 | 1 week | 26 | 36.8 mg of drug / mL of wet sediment | slower, being spread over several days | 29.8 mg of drug / mL of wet sediment
